According to patent US20070258893A1, “Compositions and methods for imaging expression of cell surface receptors” (priority 2003, published 2007):
“Also recorded” adds a separate entry of the source. Positions of bridges follow the written chain, without caps; N, C: chain ends. Non-standard residues stand in square brackets, D forms with d. Residues, ends and D or L forms follow the SMILES beside them. No end group written: not given here. 2Nal = N[C@@H](Cc1ccc2ccccc2c1)C(=O)O; Cit = NC(=O)NCCC[C@H](N)C(=O)O

Legend:
CXCR4/SDF-1 = assay: LANCE cAMP assay (TR-FRET), SDF-1-induced cAMP reduction; type: cell-based; details: SDF-1 0-100 ng/ml
Method: (§1) A salt form of 6-18-10, WZ811S, was tested in a matrigel invasion assay to measure its ability to inhibit CXCR4/SDF-mediated invasion. […] Thus, Perkin-Elmer's LANCE cAMP assay kit (Cat # AD0262) that was based on time-resolved fluorescence resonance energy transfer (TR-FRET) was tested. […] The results were measured in Perkin-Elmer's Envision multi-label microplate reader (384-wells) with conditions of flash energy area=low, flash energy level=239, counting cycle=1 ms, and ex/em=340 nm/665 nm.

[1] = target: T1, CXCR4 receptor on tumor cells (Homo sapiens, UniProt P61073); assay: Immunofluorescence competition with biotin-labeled CXCR4 antagonist and streptavidin-conjugated rhodamine; type: binding; details: labeled via HYNIC and [19F]-FBA
T1 construct: endogenous in cells; probably MDA-MB-231 as in the drug screen
From the text: FIG. 11A illustrates sub-fractions of a mixture of TN14003-HYNIC and FBA. After the conjugation steps, the mixture was fractionated with increasing acetonitrile concentration in a mobile phase. Mass spectroscopy data confirmed that fraction 6 contained TN14003-HYNIC, while the fraction […] contained 19F-labeled TN14003 (final product). Fractions 6 and 9 are indicated by arrows on the graph.
Using biotin-labeled CXCR4 antagonist along with streptavidin-conjugated rhodamine, the binding efficiency of the fluorine 19-labeled CXCR4 antagonist to CXCR4 receptor on tumor cells was determined and compared to that of the unlabeled CXCR4 antagonist in immunofluorescence as was done for drug screening, described above. Cells incubated with only streptavidin-conjugated rhodamine (negative control) were compared to cells incubated with both the biotin-labeled CXCR4 antagonist and streptavidin-conjugated rhodamine (positive control). When equal amounts of unlabeled CXCR4 antagonist were added into the biotin-labeled antagonist mixture, the red fluorescence decreased due to the competition between biotin-labeled antagonist and unlabeled antagonist. The same amount of red fluorescence decrease was seen when fluorine 19-labeled antagonist was added to the biotin-labeled antagonist mixture (FIG. 11B). […]

HIV = details: cited from earlier work; for SI=CC50/EC50: MT4 cells; for EC50: read-out: concentration required for 50% protection of HIV-induced cytopathogenicity in MT4 cells (EC50)
MT4 cells = details: cited from earlier work
[2] = tested on: CXCR4/SDF-1 mediated invasion of MDA-MB-231; assay: Matrigel invasion assay with SDF-1 as chemoattractant; type: cell-based; details: 100 nM
Method: Invasive cells penetrate matrigel and end up on the other side of the matrigel.
as §1

HUVECs = assay: SDF-1 induced endothelial tubular formation; type: cell-based; details: SDF-1 for 18 hours, pretreatment, P<0.001
[3] = in vivo; cited from earlier work
CXCR4 [4] = target: T2, CXCR4 (Homo sapiens, UniProt P61073); details: cited from earlier work
CXCR4 [5] = target: T2, CXCR4; assay: Competitive binding assay against biotin-labeled TN14003 on MDA-MB-231 cells (immunofluorescence); set-up: endogenous in cells; host or cells: MDA-MB-231; details: cells pre-incubated with compound
Method: FIG. 4A illustrates the structure of TN14003-Biotin. […] 20,000 cells of MDA-MB-231 were seeded in 8-well slide chamber two days before experiments. Various concentration of the selected compounds (10,100, and 1000 nM) were added to the separate wells, incubated for 10 minutes at room temperature, and the cells were fixed in 4% of ice-cold paraformaldelyde. The slides were subsequently incubated with 50 ng/ml of biotin-TN14003 and streptavidin-Rhomdamine, followed by sytox blue. CXCR4—Red, nuclei-blue (sytox blue)
Screening of Small Molecule CXCR4 Antagonists With a Competitive Binding Assay Against Biotin-Labeled TN14003: T140 analogs, including TN14003, bind to the ligand binding site on CXCR4, blocking the CXCR4/SDF-1 interaction, and intervening in the progression of cancer metastasis. The discovery and development of effective, orally available small molecules also remains a major focus for many medicinal chemistry programs. […] Currently, the metal-chelating cyclams and bicyclams represent the sole class of non-peptide molecules that are known to block CXCR4. […] Trent, et al. Lipid Bilayer Simulations of XCXR4 with Inverse Agonists and Weal Partial Agonists. J. Biol. Chem. 2003 Nov. 21; 278(47):47136-44. […] This information was used to create a library of compounds with multiple, basic nitrogens throughout the molecular framework that are structurally different from AMD3100. […]

[6] = tested on: CXCR4-mediated cancer metastasis; assay: CXCR4-mediated cancer metastasis in vivo; details: TN14003 three times weekly injection; WZ811S more frequent injection schedule
metastatic 686LN cells [7] = assay: Experimental head and neck cancer metastasis model (tail vein injection), FDG-PET imaging; type: in vivo; details: metastatic 686LN cells intravenously, nude mice
metastatic 686LN cells [8] = assay: Orthotopic SCCHN xenograft model (BLI, CD31 immunostaining, H&E of lungs); type: in vivo, nude mice
From the text: FIG. 2 illustrates that CXCR4 antagonists block tumor malignancy in head and neck cancer. […] Subclones of squamous cell carcinoma of the head and neck (SCCHN) cell line 686LN were generated by passing these cells through several serial metastases in the SCCHN orthotopic animal model. The sub-populations of 686LN cells included one group with elevated metastatic activity and another group with non-metastatic parental cells. […] FIG. 2C is a scanned image of bioluminescence imaging of orthotopic xenografts of head and neck cancer treated with TN 14003. Metastatic 686LN cells (5×10^5) were injected into the neck area of nude mice, and they were divided into two groups, one with TN14003 treatment and the other with control peptide injection. 1 mg/kg of TN14003 was injected three times weekly i.p. TN14003 treatment started after tumors were established (day 8). Primary tumors were immunostained by using anti-CD31 antibody, and the microvessel density was calculated by averaging CD31-positive microvessels of primary tumors from each group (n=4) as illustrated in the bar graph of FIG. 2D. FIG. 2E is a scanned image of representative H & E stainings (original magnification, ×10) from two mice from each group.
The anti-tumor efficacy of the CXCR4 antagonist as also tested in an orthotopic SCCHN animal model. The metastatic cells were stably transfected with the luciferase gene (pGL2-control from Promega) for in vivo tracking purposes. These cells (500,000 cells) were injected into the submandibular subcutaneous tissue to the mylohyoid muscle of the nude mice to create an orthotopic SCCHN xenograft, and the tumor growth was followed using non-invasive Bioluminescence Imaging (BLI). […] The intraperitoneal treatment of TN14003 started 7 days after the tumor injection and lasted for 23 days compared to that of the control peptide. […]

[9] = From the text: Additionally, a synthetic 14-mer peptide blocked the CXCR4 receptor binding to its ligand SDF-1 and inhibited CXCR4/SDF-1 mediated invasion in vitro and metastasis in vivo with a higher specificity than anti-CXCR4 antibodies (R & D Systems). The anti-invasion and anti-metastasis activity of this peptide correlated well with their inhibitory activity on SDF-1α binding to CXCR4. This antagonist is proven safe by proliferation assay, animal histology, and hemopoietic progenitor cell colony formation.
[10] = tested on: CXCR4/SDF-1 mediated invasion of MDA-MB-231; details: Liang et al.; cited from earlier work

T2 sequence (P61073 whole entry): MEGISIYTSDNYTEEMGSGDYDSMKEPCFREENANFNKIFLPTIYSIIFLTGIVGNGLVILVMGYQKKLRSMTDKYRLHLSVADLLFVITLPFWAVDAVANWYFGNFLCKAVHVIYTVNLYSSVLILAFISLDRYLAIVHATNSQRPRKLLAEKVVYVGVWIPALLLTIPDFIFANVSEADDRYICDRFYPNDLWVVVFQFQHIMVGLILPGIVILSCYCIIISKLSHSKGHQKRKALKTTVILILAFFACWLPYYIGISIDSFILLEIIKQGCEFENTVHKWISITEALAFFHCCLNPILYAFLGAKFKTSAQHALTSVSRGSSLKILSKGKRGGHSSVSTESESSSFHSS
T1 sequence (P61073 whole entry): as above

With “SDF-1: stromal cell-derived factor 1, ligand of CXCR4” the “EC80 of absorption increase at 665 nM” value (CXCR4/SDF-1) was 0.03 µg/mL.
With “^19F-labeled TN14003: TN14003-HYNIC conjugated with non-radioactive [19F]-fluorobenzaldehyde (RR[2Nal]CY[Cit]K[dK]PYR[Cit]CR-NH2; disulfide 4-13; also: HYNIC linker conjugated as hydrazone with [19F]-fluorobenzaldehyde, attachment site not given here)” the “blocking of binding of biotin-labeled TN14003 to CXCR4 on cell surface by preincubation” value [1] was “completely blocked” and the “binding efficiency to CXCR4 relative to unlabeled antagonist (red fluorescence decrease)” value ([1]; equal amounts) was “the same as that of unlabeled (original) antagonist”.
In the case of “H-Arg-Arg—NaI—Cys-Tyr-Arg-Lys—DLys—Pro-Tyr-Arg—Cit—Cys-Arg—OH (H-RR[2Nal]CYRK[dK]PYR[Cit]CR-OH; ends and bridges not checked) [T140, reference compound]”, the “SI=CC50/EC50” value (HIV) is given as 17,879, the EC50 (HIV) is given as 0.0033 µM and the CC50 (MT4 cells) is given as 59 µM.
For `c1cc(CN2CCCNCCNCCCNCC2)ccc1CN1CCCNCCNCCCNCC1` [AMD3100], the “blocking SDF-1-induced invasion” value [2] is given as “not as effective as WZ811S”, the “SDF-1 induced tubular network formation” value (HUVECs) is given as “could not” and the clinical safety outcome [3] is given as “withdrawn due to cardiotoxicity”. For the same compound, the “functional character at CXCR4” value (CXCR4 [4]) was “weak partial agonist” and the “concentration needed to compete against biotin-labeled TN14003” value (CXCR4 [5]) was 10 µM.
For `N=C(N)NCCC[C@H](NC(=O)[C@@H]1CSSC[C@H](NC(=O)[C@H](Cc2ccc3ccccc3c2)NC(=O)[C@H](CCCNC(=N)N)NC(=O)[C@@H](N)CCCNC(=N)N)C(=O)N[C@@H](Cc2ccc(O)cc2)C(=O)N[C@@H](CCCNC(N)=O)C(=O)N[C@@H](CCCCN)C(=O)N[C@H](CCCCN)C(=O)N2CCC[C@H]2C(=O)N[C@@H](Cc2ccc(O)cc2)C(=O)N[C@@H](CCCNC(=N)N)C(=O)N[C@@H](CCCNC(N)=O)C(=O)N1)C(N)=O` [TN14003, H-Arg-Arg—NaI—Cys-Tyr—Cit-Lys—DLys—Pro-Tyr-Arg—Cit—Cys-Arg—NH2] (H-RR[2Nal]CY[Cit]K[dK]PYR[Cit]CR-NH2; disulfide 4-13), the “SDF-1 induced tubular network formation” value (HUVECs) was “inhibited tubular network formation”, the “blocking of CXCR4-mediated metastasis in vivo” value [6] was “completely inhibited CXCR4-mediated cancer metastasis in vivo” and the “lung metastasis (FDG-PET, confirmed by histology)” value (metastatic 686LN cells [7]) was “prevented lung metastasis of SCCHN; also recorded: inhibited lung metastasis”. The “primary tumor growth (bioluminescence imaging)” value (metastatic 686LN cells [8]; 1 mg/kg, i.p., pre-established tumors) was “suppressed even the primary tumor”, the “tumor angiogenesis / microvessel density (CD31 immunostaining)” value (metastatic 686LN cells [8]; 1 mg/kg, i.p., primary tumors) was “significantly blocked tumor angiogenesis at the primary site” and the “lung metastases (H&E)” value (metastatic 686LN cells [8]; orthotopic model, treated vs control group) was “reduction in the metastases”. The safety [9] was “proven safe”, the “blocking SDF-1-mediated invasion versus anti-CXCR4 antibody” value [10] was “more effectively than an anti-CXCR4 antibody” and the “SI=CC50/EC50” value (HIV) was 680,000. For the same compound, the EC50 (HIV) was 0.0006 µM, the CC50 (MT4 cells) was 410 µM and the “cytotoxicity compared to T140” value (MT4 cells) was “far less cytotoxic”.
